Data published in the NIST ThermoML archive (doi:10.1021/je200637v).
Numbers after ± are expanded uncertainties.

Test: activity coefficient (dimensionless); of the first substance listed, at infinite dilution; xn = mol fraction of the nth substance listed
Settings: Liquid, Chromatography, x1 = 0

Row | SMILES | activity coefficient (322.85 K) | activity coefficient (332.65 K) | activity coefficient (343.15 K)
1 | CCCCCCCCCCCC [dodecane] + CCCCCCCC[N+](C)(C)C.O=S(=O)([N-]S(=O)(=O)C(F)(F)F)C(F)(F)F | 33.1 ± 1.5 | 30.5 ± 1.4 | 27.1 ± 1.3
2 | CCCCCCCCCCCC [dodecane] + CCCCCCCC[N+](CCCCCCCC)(CCCCCCCC)CCCCCCCC.O=S(=O)([N-]S(=O)(=O)C(F)(F)F)C(F)(F)F |  |  | 2.72 ± 0.12
3 | CCCCCCCCCCCC [dodecane] + CCCC[N+](C)(CCCC)CCCC.O=S(=O)([N-]S(=O)(=O)C(F)(F)F)C(F)(F)F | 32.4 ± 1.5 | 31.3 ± 1.4 | 28.8 ± 1.3
4 | CCO [ethanol] + CCCCCCCCCC[N+](C)(C)C.O=S(=O)([N-]S(=O)(=O)C(F)(F)F)C(F)(F)F | 1.29 ± 0.04 | 1.19 ± 0.04 | 1.07 ± 0.03
5 | CCO [ethanol] + CCCCCCCC[N+](C)(C)C.O=S(=O)([N-]S(=O)(=O)C(F)(F)F)C(F)(F)F | 1.47 ± 0.06 | 1.32 ± 0.05 | 1.19 ± 0.04
6 | CCO [ethanol] + CCCCCCCC[N+](CCCCCCCC)(CCCCCCCC)CCCCCCCC.O=S(=O)([N-]S(=O)(=O)C(F)(F)F)C(F)(F)F | 1.18 ± 0.04 | 1.12 ± 0.03 | 1.05 ± 0.03
7 | CCO [ethanol] + CCCC[N+](C)(CCCC)CCCC.O=S(=O)([N-]S(=O)(=O)C(F)(F)F)C(F)(F)F | 1.53 ± 0.06 | 1.4 ± 0.05 | 1.27 ± 0.04
8 | CCc1ccccc1 [ethylbenzene] + CCCCCCCCCC[N+](C)(C)C.O=S(=O)([N-]S(=O)(=O)C(F)(F)F)C(F)(F)F | 1.16 ± 0.04 | 1.2 ± 0.04 | 1.19 ± 0.04
9 | CCc1ccccc1 [ethylbenzene] + CCCCCCCC[N+](C)(C)C.O=S(=O)([N-]S(=O)(=O)C(F)(F)F)C(F)(F)F | 1.39 ± 0.05 | 1.4 ± 0.05 | 1.38 ± 0.05
10 | CCc1ccccc1 [ethylbenzene] + CCCCCCCC[N+](CCCCCCCC)(CCCCCCCC)CCCCCCCC.O=S(=O)([N-]S(=O)(=O)C(F)(F)F)C(F)(F)F | 0.59 ± 0.03 | 0.6 ± 0.03 | 0.61 ± 0.03
11 | CCc1ccccc1 [ethylbenzene] + CCCC[N+](C)(CCCC)CCCC.O=S(=O)([N-]S(=O)(=O)C(F)(F)F)C(F)(F)F | 1.56 ± 0.06 | 1.64 ± 0.07 | 1.63 ± 0.07
12 | CCCCCCC [heptane] + CCCCCCCCCC[N+](C)(C)C.O=S(=O)([N-]S(=O)(=O)C(F)(F)F)C(F)(F)F | 5.26 ± 0.24 | 5.14 ± 0.23 | 4.92 ± 0.22
13 | CCCCCCC [heptane] + CCCCCCCC[N+](C)(C)C.O=S(=O)([N-]S(=O)(=O)C(F)(F)F)C(F)(F)F | 8.27 ± 0.38 | 7.81 ± 0.36 | 7.18 ± 0.33
14 | CCCCCCC [heptane] + CCCCCCCC[N+](CCCCCCCC)(CCCCCCCC)CCCCCCCC.O=S(=O)([N-]S(=O)(=O)C(F)(F)F)C(F)(F)F | 1.5 ± 0.06 | 1.48 ± 0.06 | 1.47 ± 0.06
15 | CCCCCCC [heptane] + CCCC[N+](C)(CCCC)CCCC.O=S(=O)([N-]S(=O)(=O)C(F)(F)F)C(F)(F)F | 8.88 ± 0.41 | 8.82 ± 0.4 | 8.34 ± 0.38
16 | C=CCCCC [hex-1-ene] + CCCCCCCCCC[N+](C)(C)C.O=S(=O)([N-]S(=O)(=O)C(F)(F)F)C(F)(F)F | 2.7 ± 0.12 | 2.86 ± 0.13 | 2.76 ± 0.13
17 | C=CCCCC [hex-1-ene] + CCCCCCCC[N+](C)(C)C.O=S(=O)([N-]S(=O)(=O)C(F)(F)F)C(F)(F)F | 3.99 ± 0.18 | 3.8 ± 0.17 | 3.6 ± 0.16
18 | C=CCCCC [hex-1-ene] + CCCCCCCC[N+](CCCCCCCC)(CCCCCCCC)CCCCCCCC.O=S(=O)([N-]S(=O)(=O)C(F)(F)F)C(F)(F)F | 1.05 ± 0.03 | 1.05 ± 0.03 | 1.04 ± 0.03
19 | C=CCCCC [hex-1-ene] + CCCC[N+](C)(CCCC)CCCC.O=S(=O)([N-]S(=O)(=O)C(F)(F)F)C(F)(F)F | 4.31 ± 0.2 | 4.4 ± 0.2 | 4.25 ± 0.19
20 | CCCCCC [hexane] + CCCCCCCCCC[N+](C)(C)C.O=S(=O)([N-]S(=O)(=O)C(F)(F)F)C(F)(F)F | 4.2 ± 0.19 | 4.1 ± 0.18 | 3.93 ± 0.17
21 | CCCCCC [hexane] + CCCCCCCC[N+](C)(C)C.O=S(=O)([N-]S(=O)(=O)C(F)(F)F)C(F)(F)F | 6.21 ± 0.28 | 5.83 ± 0.27 | 5.36 ± 0.24
22 | CCCCCC [hexane] + CCCCCCCC[N+](CCCCCCCC)(CCCCCCCC)CCCCCCCC.O=S(=O)([N-]S(=O)(=O)C(F)(F)F)C(F)(F)F | 1.3 ± 0.04 | 1.29 ± 0.04 | 1.28 ± 0.04
23 | CCCCCC [hexane] + CCCC[N+](C)(CCCC)CCCC.O=S(=O)([N-]S(=O)(=O)C(F)(F)F)C(F)(F)F | 6.75 ± 0.31 | 6.75 ± 0.31 | 6.44 ± 0.29
